# Legend:
# [1] = test system: instantaneous inward-rectifier current; assay: Whole-cell patch-clamp of instantaneous inward-rectifier current in canine cardiomyocytes; format: cell-based; details: 1 μM tertiapin-Q; not statistically significant
# Protocol: Adult mongrel dogs of either sex (weighing about 20-35 kg) were anaesthetized with pentobarbital (30 mg kg^−1 I.V.) and artificially ventilated with room air. Hearts and adjacent lung tissue were relatively quickly excised through a left lateral thoracotomy and immersed in oxygenated Tyrode solution (composition detailed hereinbelow) at room temperature. […] A left atrial (LA) preparation with the PVs intact was perfused via the left circumflex coronary artery, and subjected to either standard fine-tipped microelectrode recording of action potentials (APs) or cardiomyocyte isolation with collagenase-containing solutions, as previously described (Ehrlich et al. 2003). Six dogs were subjected to atrial tachycardia-induced remodeling induced by 1 week of atrial pacing at about 400 beats min^−1 after ablation of the AV node, as described in Li et al. 1999. Animal care and handling procedures followed the guidelines of the Canadian Council on Animal Care.
# To isolate LA and PV cardiomyocytes, the proximal circumflex artery was cannulated and the distal ends of PV myocardial sleeves (approximately 1-1.5 cm from the PV-LA junction) were marked with silk thread prior to subsequent enzyme perfusion with collagenase (100 U ml^−1, Worthington, type II), in order to facilitate localization of PV sleeves after enzymatic digestion. […] All comparisons were based on PV and LA cardiomyocytes isolated from each dog on each experimental day. After isolation, cells were stored at 4° C. and studied on the same day. […]
# Currents were recorded with the whole-cell patch-clamp technique at 36±0.5° C., as described in Yue et al. 1996. […] Capacitance was assessed using 5 mV, 10 ms hyperpolarizing steps from a holding potential (HP) of −60 mV. […]
# Currents were recorded with hyperpolarizing and depolarizing pulses (generally 4 s duration) from a HP of −40 mV to selected test potentials (TPs). […] For the determination of reversal potentials, tail currents were recorded after 1.6 s pulses to −120 mV followed by 3.2 s depolarizations to TPs between −110 and +20. […]
# [2] = molecular target: IKATP (Homo sapiens, UniProt Q14654); details: at concentrations of 8 to 30 nM; cited from earlier work
# [3] = test system: AT-remodeled canine left atrial (LA) preparations; assay: Atrial tachyarrhythmia induction in AT-remodeled coronary-perfused LA preparations in vitro
# Protocol: (§1) Briefly, dogs were subjected to 7-13 days of AT at about 400 beats per minute (bpm). LA preparations were then coronary-perfused and studied intact in vitro or subjected to cardiomyocyte isolation. IKH was studied with patch clamp.
# (§2) Adult dogs were divided into control and AT groups. AT dogs were initially anesthetized with diazepam (0.25 mg/kg IV), ketamine (5.0 mg/kg IV), and halothane (1% to 2%) for transvenous insertion of right ventricular (RV) and right atrial (RA) unipolar pacing leads connected to ventricular and atrial pacemakers implanted in the neck. Pacing began 24 hours after pacemaker implantation. AV block was created by radiofrequency catheter ablation and the RV demand-pacemaker was programmed to 80 bpm. The RA was then tachypaced (400 bpm) for 7-13 days.
# On study days, dogs were anesthetized with pentobarbital (30 mg·kg^−1 I.V.) and artificially ventilated. Hearts and adjacent lung tissue were excised via a left thoracotomy and immersed in oxygenated Tyrode solution. For cell isolation, the proximal circumflex coronary artery was cannulated and distal ends of PV myocardial sleeves were marked with silk thread prior to enzyme perfusion with collagenase (100 U mL^−1, Worthington, type II), to facilitate identification after enzymatic digestion. PVs were well-perfused and single cardiomyocytes were isolated from all PVs. After isolation, cells were stored at 4° C. and studied within 12 hours.
# For standard-microelectrode experiments and atrial-tachyarrhythmia induction, intact tissue preparations including the LA and adjacent PVs were mounted in a Plexiglas chamber and perfused via the left circumflex coronary artery with oxygenated Kreb's solution at 36±0.5° C. Fine-tipped microelectrodes (resistance 15-20 MΩ when filled with 3-mol/L KCL) coupled to a high-input impedance amplifier were used to record Action Potentials.
# For atrial tachyarrhythmia induction, single S2-extrastimuli following 15 S1-stimuli at basic cycle lengths (CLs) of 150-400 ms with a 5-second pause to observe the response were used. All stimuli were twice-threshold, 2-ms pulses.
# [4] = test system: IKH; assay: Patch-clamp of TQ-sensitive IKH component in LA cardiomyocytes of control and AT dogs; format: cell-based, canine; details: at −110 mV
# Protocol: as §1, §2
# On study days, dogs were anesthetized with pentobarbital (30 mg·kg^−1 I.V.) and artificially ventilated. Hearts and adjacent lung tissue were excised via a left thoracotomy and immersed in oxygenated Tyrode solution. […]
# For single cardiomyocytes, currents were recorded with whole-cell patch-clamp at 36±0.5° C. […] To control for cell-size variability, currents are expressed as densities (pA/pF). […]
# [5] = test system: IK1; details: at concentrations of 8 to 30 nM; cited from earlier work
# Sequence of IKATP (Q14654 whole entry, species assumed, the tested form may be a part): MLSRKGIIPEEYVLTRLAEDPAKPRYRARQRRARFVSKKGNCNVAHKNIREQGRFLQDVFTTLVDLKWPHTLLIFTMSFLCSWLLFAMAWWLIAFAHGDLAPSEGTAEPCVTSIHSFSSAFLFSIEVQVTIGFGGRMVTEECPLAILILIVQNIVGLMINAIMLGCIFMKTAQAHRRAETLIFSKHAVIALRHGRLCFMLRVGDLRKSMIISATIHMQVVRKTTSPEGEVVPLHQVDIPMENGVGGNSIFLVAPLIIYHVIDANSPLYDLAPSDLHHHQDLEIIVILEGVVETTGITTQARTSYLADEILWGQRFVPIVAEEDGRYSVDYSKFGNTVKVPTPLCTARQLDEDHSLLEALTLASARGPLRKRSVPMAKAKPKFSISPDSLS
# Sequence of IKATP (O60706 whole entry partner, species assumed, the tested form may be a part): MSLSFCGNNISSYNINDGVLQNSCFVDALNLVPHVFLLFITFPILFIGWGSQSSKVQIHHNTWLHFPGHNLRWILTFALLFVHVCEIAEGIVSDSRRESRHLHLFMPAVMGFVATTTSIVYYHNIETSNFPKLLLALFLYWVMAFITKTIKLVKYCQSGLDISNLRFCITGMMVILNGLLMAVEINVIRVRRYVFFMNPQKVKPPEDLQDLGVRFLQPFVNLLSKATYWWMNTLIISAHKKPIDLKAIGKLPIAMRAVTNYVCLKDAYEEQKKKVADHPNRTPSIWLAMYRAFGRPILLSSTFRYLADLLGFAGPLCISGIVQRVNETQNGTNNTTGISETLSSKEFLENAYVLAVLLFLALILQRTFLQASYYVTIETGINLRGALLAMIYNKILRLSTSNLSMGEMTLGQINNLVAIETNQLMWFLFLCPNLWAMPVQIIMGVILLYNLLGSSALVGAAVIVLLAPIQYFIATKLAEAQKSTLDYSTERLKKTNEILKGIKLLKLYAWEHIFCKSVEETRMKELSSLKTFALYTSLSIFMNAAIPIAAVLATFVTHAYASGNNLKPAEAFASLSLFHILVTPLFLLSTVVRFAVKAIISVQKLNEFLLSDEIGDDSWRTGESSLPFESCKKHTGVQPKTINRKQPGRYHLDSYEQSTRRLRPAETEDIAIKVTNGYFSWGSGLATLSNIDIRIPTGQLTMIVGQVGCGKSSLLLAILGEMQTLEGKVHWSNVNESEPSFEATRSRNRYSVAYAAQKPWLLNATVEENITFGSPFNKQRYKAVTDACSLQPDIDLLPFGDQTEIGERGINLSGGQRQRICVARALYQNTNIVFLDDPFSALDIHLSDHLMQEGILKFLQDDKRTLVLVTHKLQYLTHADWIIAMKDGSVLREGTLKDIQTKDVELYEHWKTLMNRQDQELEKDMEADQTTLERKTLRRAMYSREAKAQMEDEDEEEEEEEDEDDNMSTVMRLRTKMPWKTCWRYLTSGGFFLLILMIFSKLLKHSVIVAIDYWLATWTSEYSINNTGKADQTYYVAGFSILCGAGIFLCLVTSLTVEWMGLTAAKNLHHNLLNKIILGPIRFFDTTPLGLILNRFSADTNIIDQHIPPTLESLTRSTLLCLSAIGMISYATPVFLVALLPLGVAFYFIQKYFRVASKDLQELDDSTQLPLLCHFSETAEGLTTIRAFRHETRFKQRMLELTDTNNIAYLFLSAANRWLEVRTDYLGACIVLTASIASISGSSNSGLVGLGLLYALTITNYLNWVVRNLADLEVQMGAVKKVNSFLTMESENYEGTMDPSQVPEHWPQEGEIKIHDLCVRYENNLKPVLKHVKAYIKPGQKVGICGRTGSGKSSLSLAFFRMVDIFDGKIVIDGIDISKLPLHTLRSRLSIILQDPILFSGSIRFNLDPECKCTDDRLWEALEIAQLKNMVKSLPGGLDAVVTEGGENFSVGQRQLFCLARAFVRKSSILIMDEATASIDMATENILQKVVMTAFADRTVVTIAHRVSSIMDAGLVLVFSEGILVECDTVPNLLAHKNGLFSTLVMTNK
substance,measurement,setting,value
tertiapin-Q,decrease of mean instantaneous current,[1],25%
same,effect on IKATP (in words),[2],no effect
same,tachyarrhythmia cycle length,"[3]; 100 nM TQ, without TQ 108±0.3 ms",179 ± 0.8 ms
same,mean tachyarrhythmia duration,"[3]; 100 nM TQ, without TQ 11602±604 ms",520 ± 6 ms
same,time to termination of arrhythmia after TQ administration,[3]; 2 cases of tachyarrhythmia lasting uninterrupted for more than 20 minutes,≤ 4 min
same,100 nM TQ-sensitive component of IKH,[4]; AT dogs,−2.8±0.5 pA/pF
same,100 nM TQ-sensitive component of IKH,[4]; control dogs,−1.7±0.5 pA/pF
same,effect on IK1 (in words),[5],no effect

# Source: patent US20060094003A1, “Acetylcholine-dependent current as a novel ionic target for atrial fibrillation” (priority 2004, published 2006)
